According to patent publication US10987359B2, “Oxadiazepinone derivatives and methods of treating hepatitis B infections” (priority 2016, dated 2021):
pEC50: −log10 of the molar value.

test system: HBV; test: HBV replication inhibition assay (BDNA assay) in HepG2.2.15 cells; type: cell-based; settings: HBV replication assay (BDNA assay), HepG2.2.15 cells; read-out: DNA EC50
In short: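 Supernatant encapsidated HBV DNA was measured by bDNA after DNase digestion and proteinase K release. Stably HBV-integrated HepG2.2.15 cells had two 3-day compound exposures (0.5% DMSO). Signals were background-subtracted and normalized to DMSO wells, and EC50 was obtained by four-parameter fit.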

| Compound | pEC50 |
| --- | --- |
| CC(=O)NCC1Cn2nc3c(c2C(=O)N(C)O1)CN(C(=O)Nc1ccc(F)c(C#N)c1)[C@H](C)C3 (single isomer, unassigned) [Compound 176_D1, (4S*,9R)-4-(acetamidomethyl)-N-(3-cyano-4-fluorophenyl)-2,9-dimethyl-1-oxo-1,4,5,8,9,11-hexahydropyrido[4′,3′:3,4]pyrazolo[5,1-d][1,2,5]oxadiazepine-10(2H)-carboxamide] | 6.30 to 7.00 |
| CC(=O)NCC1Cn2nc3c(c2C(=O)N(C)O1)CN(C(=O)Nc1ccc(F)c(C#N)c1)[C@H](C)C3 (single isomer, unassigned) [Compound 176_D2, (4R*,9R)-4-(acetamidomethyl)-N-(3-cyano-4-fluorophenyl)-2,9-dimethyl-1-oxo-1,4,5,8,9,11-hexahydropyrido[4′,3′:3,4]pyrazolo[5,1-d][1,2,5]oxadiazepine-10(2H)-carboxamide] | 7.00 to 9.00 |
| CC(=O)NCC1Cn2nc3c(c2C(=O)N(C)O1)CN(C(=O)Nc1ccc(F)c(C(F)(F)F)c1)[C@H](C)C3 (single isomer, unassigned) [Compound 177_D2, (4R*,9R)-4-(acetamidomethyl)-N-(4-fluoro-3-(trifluoromethyl)phenyl)-2,9-dimethyl-1-oxo-1,4,5,8,9,11-hexahydropyrido[4′,3′:3,4]pyrazolo[5,1-d][1,2,5]oxadiazepine-10(2H)-carboxamide] | 7.00 to 9.00 |

same assay, conditions: Hepatitis B virus, HepG2.2.15, HBV replication assay (BDNA assay), HepG2.2.15 cells; read-out: DNA EC50

| Compound | pEC50 |
| --- | --- |
| CN1OC(CO)Cn2nc3c(c2C1=O)CN(C(=O)Nc1cc(F)c(F)c(F)c1F)CC3 (single isomer, unassigned) [Compound 151_E1, (S*)-4-(hydroxymethyl)-2-methyl-1-oxo-N-(2,3,4,5-tetrafluorophenyl)-1,4,5,8,9,11-hexahydropyrido[4′,3′:3,4]pyrazolo[5,1-d][1,2,5]oxadiazepine-10(2H)-carboxamide] | 7.00 to 9.00 |
| C[C@@H]1Cc2nn3c(c2CN1C(=O)Nc1ccc(F)c(Cl)c1F)C(=O)N(C)OC(C(=O)N(C)CC(F)F)C3 (single isomer, unassigned) [Compound 152_D1, (4S*,9R)—N10-(3-chloro-2,4-difluorophenyl)-N4-(2,2-difluoroethyl)-N4,2,9-trimethyl-1-oxo-1,4,5,8,9,11-hexahydropyrido[4′,3′:3,4]pyrazolo[5,1-d][1,2,5]oxadiazepine-4,10(2H)-dicarboxamide] | 7.00 to 9.00 |
| CNC(=O)C1Cn2nc3c(c2C(=O)N(C)O1)CN(C(=O)Nc1ccc(F)c(C#N)c1F)[C@H](C)C3 (single isomer, unassigned) [Compound 156_D1, (4S*,9R)—N10-(3-cyano-2,4-difluorophenyl)-N4,2,9-trimethyl-1-oxo-1,4,5,8,9,11-hexahydropyrido[4′,3′:3,4]pyrazolo[5,1-d][1,2,5]oxadiazepine-4,10(2H)-dicarboxamide] | < 6.00 |
| CC(=O)NCC1Cn2nc3c(c2C(=O)N(C)O1)CN(C(=O)Nc1ccc(F)c(C#N)c1F)CC3 (single isomer, unassigned) [Compound 167_E1, (S*)-4-(acetamidomethyl)-N-(3-cyano-2,4-difluorophenyl)-2-methyl-1-oxo-1,4,5,8,9,11-hexahydropyrido[4′,3′:3,4]pyrazolo[5,1-d][1,2,5]oxadiazepine-10(2H)-carboxamide] | 7.00 to 9.00 |
| CC(=O)NCC1Cn2nc3c(c2C(=O)N(C)O1)CN(C(=O)Nc1ccc(F)c(C#N)c1)CC3 (single isomer, unassigned) [Compound 168_E1, (S*)-4-(acetamidomethyl)-N-(3-cyano-4-fluorophenyl)-2-methyl-1-oxo-1,4,5,8,9,11-hexahydropyrido[4′,3′:3,4]pyrazolo[5,1-d][1,2,5]oxadiazepine-10(2H)-carboxamide] | 7.00 to 9.00 |
| CC(=O)NCC1Cn2nc3c(c2C(=O)N(C)O1)CN(C(=O)Nc1ccc(F)c(Cl)c1F)CC3 (single isomer, unassigned) [Compound 169_E1, (S*)-4-(acetamidomethyl)-N-(3-chloro-2,4-difluorophenyl)-2-methyl-1-oxo-1,4,5,8,9,11-hexahydropyrido[4′,3′:3,4]pyrazolo[5,1-d][1,2,5]oxadiazepine-10(2H)-carboxamide] | 7.00 to 9.00 |
| CC(=O)NCC1Cn2nc3c(c2C(=O)N(C)O1)CN(C(=O)Nc1ccc(F)c(Br)c1F)CC3 (single isomer, unassigned) [Compound 170_E1, (S*)-4-(acetamidomethyl)-N-(3-bromo-2,4-difluorophenyl)-2-methyl-1-oxo-1,4,5,8,9,11-hexahydropyrido[4′,3′:3,4]pyrazolo[5,1-d][1,2,5]oxadiazepine-10(2H)-carboxamide] | 7.00 to 9.00 |
| CC(=O)NCC1Cn2nc3c(c2C(=O)N(C)O1)CN(C(=O)Nc1ccc(F)c(Br)c1)CC3 (single isomer, unassigned) [Compound 171_E1, (S*)-4-(acetamidomethyl)-N-(3-bromo-4-fluorophenyl)-2-methyl-1-oxo-1,4,5,8,9,11-hexahydropyrido[4′,3′:3,4]pyrazolo[5,1-d][1,2,5]oxadiazepine-10(2H)-carboxamide] | 7.00 to 9.00 |
| CC(=O)NCC1Cn2nc3c(c2C(=O)N(C)O1)CN(C(=O)Nc1ccc(F)c(C(F)(F)F)c1F)CC3 (single isomer, unassigned) [Compound 172_E1, (S*)-4-(acetamidomethyl)-N-(2,4-difluoro-3-(trifluoromethyl)phenyl)-2-methyl-1-oxo-1,4,5,8,9,11-hexahydropyrido[4′,3′:3,4]pyrazolo[5,1-d][1,2,5]oxadiazepine-10(2H)-carboxamide] | 7.00 to 9.00 |
| CC(=O)NCC1Cn2nc3c(c2C(=O)N(C)O1)CN(C(=O)Nc1cc(Cl)c(F)cc1F)CC3 (single isomer, unassigned) [Compound 173_E1, (S*)-4-(acetamidomethyl)-N-(5-chloro-2,4-difluorophenyl)-2-methyl-1-oxo-1,4,5,8,9,11-hexahydropyrido[4′,3′:3,4]pyrazolo[5,1-d][1,2,5]oxadiazepine-10(2H)-carboxamide] | 7.00 to 9.00 |
| CC(=O)NCC1Cn2nc3c(c2C(=O)N(C)O1)CN(C(=O)Nc1cc(Br)c(F)cc1F)CC3 (single isomer, unassigned) [Compound 174_E1, (S*)-4-(acetamidomethyl)-N-(5-bromo-2,4-difluorophenyl)-2-methyl-1-oxo-1,4,5,8,9,11-hexahydropyrido[4′,3′:3,4]pyrazolo[5,1-d][1,2,5]oxadiazepine-10(2H)-carboxamide] | 7.00 to 9.00 |
| CC(=O)NCC1Cn2nc3c(c2C(=O)N(C)O1)CN(C(=O)Nc1ccc(F)c(C(F)(F)F)c1)CC3 (single isomer, unassigned) [Compound 175_E1, (S*)-4-(acetamidomethyl)-N-(4-fluoro-3-(trifluoromethyl)phenyl)-2-methyl-1-oxo-1,4,5,8,9,11-hexahydropyrido[4′,3′:3,4]pyrazolo[5,1-d][1,2,5]oxadiazepine-10(2H)-carboxamide] | 7.00 to 9.00 |
| CC(=O)NCC1Cn2nc3c(c2C(=O)N(C)O1)CN(C(=O)Nc1ccc(F)c(C(F)(F)F)c1)[C@H](C)C3 (single isomer, unassigned) [Compound 177_D1, (4S*,9R)-4-(acetamidomethyl)-N-(4-fluoro-3-(trifluoromethyl)phenyl)-2,9-dimethyl-1-oxo-1,4,5,8,9,11-hexahydropyrido[4′,3′:3,4]pyrazolo[5,1-d][1,2,5]oxadiazepine-10(2H)-carboxamide] | 7.00 to 9.00 |
